These are literature values, as cited in patent US20060089285A1, “Stabilized chlorine bleach in alkaline detergent composition and method of making and using the same” (priority 2004, published 2006).

For series [1] the following is noted: OCl-/HOCl equilibrium, ambient temperature.
For series [2] the following is noted: in an alkaline liquid detergent; prior art statement.

The term pKa denotes the negative logarithm of the acid dissociation constant. Regarding `OCl` [HOCl], the pKa in series [1] is listed as 7.5.
Take `OCl` [sodium hypochlorite bleach, Sodium hypochlorite]: the shelf stability result in series [2] is listed as “about 3 months”.
